Experimental findings from the supplement of paper PMC10331698 are described below.

± gives the standard deviation of the averaged measurements.

Common to all, as to experiment: level (log10 ratio to DMSO vehicle control); higher = higher biomarker level / cell amount than vehicle control
Compound in experiment [1]: OCCCC(F)(F)C(F)(F)C(F)(F)C(F)(F)C(F)(F)C(F)(F)C(F)(F)F [7:3 Fluorotelomer alcohol]
To be noted: 6700 nM; in DMSO. As for the experimental part: (§1)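 BioMAP Diversity Plus panel of 12 human primary cell co-culture systems (3C, 4H, LPS, SAg, BT, BF4T, BE3C, CASM3C, HDF3CGF, KF3CT, MyoF, Mphg). Compounds were added 1 h before stimulation and left for 24 h (MyoF 48 h; BT 72 h for soluble read-outs or 6 d for IgG). Biomarkers were read by ELISA, cytotoxicity by SRB, PBMC viability and proliferation by Alamar Blue. Each well value was divided by the mean of 8 DMSO control wells on the same plate and log10 transformed; duplicate blinded samples were tested at 4 concentrations.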

Compound in the next experiment: O=C(O)C(F)(F)C(F)(F)C(F)(F)F [Perfluorobutanoic acid]
To be noted: in DMSO. As for the experimental part: as §1

Compound in the next experiment: NC(=O)C(F)(F)C(F)(F)F [Pentafluoropropionamide]
The note with it: in DMSO. As for the experimental part:
as §1

Compound in experiment [2]: FC(F)C(F)(F)COCC1CO1 [((2,2,3,3-Tetrafluoropropoxy)methyl)oxirane]
The note with it: in DMSO. Here is the method:
as §1

Compound in another experiment: O=C(O)C(F)(F)C(F)(F)F [Perfluoropropanoic acid]
The note with it: in DMSO. Here is the method:
as §1

Compound in experiment [3]: O=C(O)C(F)(F)C(F)(F)C(F)(F)OC(F)(C(F)(F)F)C(F)(F)F [Perfluoro-4-isopropoxybutanoic acid]
To be noted: in DMSO. As for the experimental part: as §1

Compound in the next experiment: O=C(O)C(F)(F)C(F)(F)C(F)(F)C(F)(F)C(F)(F)C(F)(F)F [Perfluoroheptanoic acid]
The note with it: in DMSO. Here is the method:
as §1

As for 3C:CD87/uPAR, the “level (log10)” value is -0.003 ± 0.031 in experiment [1]; 0.0005 ± 0.005 with Perfluorobutanoic acid (6700 nM); 0.0105 ± 0.015 in the experiment with Perfluorobutanoic acid (20000 nM); -0.0065 ± 0.011 in the experiment with Perfluorobutanoic acid (60000 nM); -0.052 ± 0.016 with Pentafluoropropionamide (6700 nM); -0.042 ± 0.038 in the experiment with Pentafluoropropionamide (20000 nM). Besides, the “level (log10)” value is -0.049 ± 0.014 with Pentafluoropropionamide (60000 nM); 0.0035 ± 0.012 in experiment [2] (6700 nM); -0.002 ± 0.0042 in experiment [2] (20000 nM); 0.009 ± 0.0042 in experiment [2] (60000 nM); -0.008 ± 0.011 in the experiment with Perfluoropropanoic acid (6700 nM); -0.005 ± 0.011 in the experiment with Perfluoropropanoic acid (20000 nM). Also, the “level (log10)” value with Perfluoropropanoic acid (60000 nM) is 0.0125 ± 0.013; in experiment [3] (6700 nM), -0.001 ± 0.04; in experiment [3] (20000 nM), -0.009 ± 0.041; in experiment [3] (60000 nM), -0.023 ± 0.033; with Perfluoroheptanoic acid (6700 nM), 0.0015 ± 0.0021; in the experiment with Perfluoroheptanoic acid (20000 nM), -0.0115 ± 0.026. For the same test system, the “level (log10)” value in the experiment with Perfluoroheptanoic acid (60000 nM) worked out at 0.0045 ± 0.013.

Take 3C:CXCL8/IL-8: the “level (log10)” value is 0.0075 ± 0.0035 in experiment [1]; 0.001 ± 0.028 with Perfluorobutanoic acid (6700 nM); -0.0035 ± 0.0064 with Perfluorobutanoic acid (20000 nM); 0.0205 ± 0.03 with Perfluorobutanoic acid (60000 nM); -0.026 ± 0.013 with Pentafluoropropionamide (6700 nM); -0.028 ± 0.0099 with Pentafluoropropionamide (20000 nM). Moreover, the “level (log10)” value with Pentafluoropropionamide (60000 nM) is 0.002 ± 0.044; in experiment [2] (6700 nM) it was -0.0255 ± 0.005; in experiment [2] (20000 nM), -0.0275 ± 0.0021; in experiment [2] (60000 nM), 0.003 ± 0.042; with Perfluoropropanoic acid (6700 nM), 0.007 ± 0.03; with Perfluoropropanoic acid (20000 nM) it was -0.001 ± 0.02. In addition, the “level (log10)” value with Perfluoropropanoic acid (60000 nM) is 0.0255 ± 0.047; in experiment [3] (6700 nM) it was -0.0055 ± 0.015; in experiment [3] (20000 nM), 0.007 ± 0.013; in experiment [3] (60000 nM), 0.043 ± 0.034; with Perfluoroheptanoic acid (6700 nM) it was 0.0285 ± 0.04; in the experiment with Perfluoroheptanoic acid (20000 nM), 0.0305 ± 0.056. For the same test system, the “level (log10)” value with Perfluoroheptanoic acid (60000 nM) amounted to 0.0955 ± 0.088.

For the test system 3C:CXCL9/MIG, the “level (log10)” value is -0.0135 ± 0.0035 in experiment [1]; -0.003 ± 0.0042 with Perfluorobutanoic acid (6700 nM); -0.0015 ± 0.011 with Perfluorobutanoic acid (20000 nM); 0.0085 ± 0.0078 in the experiment with Perfluorobutanoic acid (60000 nM); -0.0025 ± 0.0078 with Pentafluoropropionamide (6700 nM); -0.011 ± 0.0071 with Pentafluoropropionamide (20000 nM). Also, the “level (log10)” value with Pentafluoropropionamide (60000 nM) was 0.0085 ± 0.012; in experiment [2] (6700 nM) it was 0.0045 ± 0.013; in experiment [2] (20000 nM) it was -0.0065 ± 0.016; in experiment [2] (60000 nM) it was -0.0035 ± 0.0078; in the experiment with Perfluoropropanoic acid (6700 nM) it was -0.0005 ± 0.012; in the experiment with Perfluoropropanoic acid (20000 nM) it was 0.0025 ± 0.0064. The “level (log10)” value with Perfluoropropanoic acid (60000 nM) is 0.0075 ± 0.019; in experiment [3] (6700 nM), -0.0015 ± 0.0078; in experiment [3] (20000 nM) it was -0.0085 ± 0.0021; in experiment [3] (60000 nM), 0.0105 ± 0.0035; with Perfluoroheptanoic acid (6700 nM), 0.0115 ± 0.0035; in the experiment with Perfluoroheptanoic acid (20000 nM), -0.01 ± 0.0071. Further, the “level (log10)” value with Perfluoroheptanoic acid (60000 nM) was found to be 0.0135 ± 0.0078.

Regarding 3C:HLA-DR, the “level (log10)” value in experiment [1] was -0.002 ± 0.0057; in the experiment with Perfluorobutanoic acid (6700 nM) it was -0.0035 ± 0.028; with Perfluorobutanoic acid (20000 nM), -0.0215 ± 0.00071; with Perfluorobutanoic acid (60000 nM), -0.0115 ± 0.021; with Pentafluoropropionamide (6700 nM), -0.0255 ± 0.029; with Pentafluoropropionamide (20000 nM) it was -0.0165 ± 0.013. The “level (log10)” value in the experiment with Pentafluoropropionamide (60000 nM) was -0.0125 ± 0.00071; in experiment [2] (6700 nM), 0.012 ± 0.0085; in experiment [2] (20000 nM), 0.013 ± 0.021; in experiment [2] (60000 nM), 0.0235 ± 0.043; in the experiment with Perfluoropropanoic acid (6700 nM) it was -0.003 ± 0.0028; with Perfluoropropanoic acid (20000 nM), 0.0035 ± 0.0035. For the same test system, the “level (log10)” value with Perfluoropropanoic acid (60000 nM) was 0.011 ± 0.011; in experiment [3] (6700 nM) it was 0.0145 ± 0.044; in experiment [3] (20000 nM), -0.0035 ± 0.005; in experiment [3] (60000 nM), 0.002 ± 0.016; in the experiment with Perfluoroheptanoic acid (6700 nM), 0.006 ± 0.017; with Perfluoroheptanoic acid (20000 nM), 0.004 ± 0.013. Also, the “level (log10)” value with Perfluoroheptanoic acid (60000 nM) turned out to be 0.034 ± 0.047.

In the case of 3C:Proliferation, the “level (log10)” value was -0.093 ± 0.095 in experiment [1]; -0.0225 ± 0.084 with Perfluorobutanoic acid (6700 nM); -0.02 ± 0.061 with Perfluorobutanoic acid (20000 nM); 0.024 ± 0.042 in the experiment with Perfluorobutanoic acid (60000 nM); -0.0095 ± 0.05 with Pentafluoropropionamide (6700 nM); -0.0165 ± 0.0064 with Pentafluoropropionamide (20000 nM). For the same test system, the “level (log10)” value in the experiment with Pentafluoropropionamide (60000 nM) was -0.0115 ± 0.029; in experiment [2] (6700 nM) it was -0.034 ± 0.016; in experiment [2] (20000 nM), -0.0165 ± 0.00071; in experiment [2] (60000 nM), -0.039 ± 0.02; with Perfluoropropanoic acid (6700 nM) it was 0.019 ± 0.016; with Perfluoropropanoic acid (20000 nM), 0.024 ± 0.073. In addition, the “level (log10)” value is -0.051 ± 0.083 with Perfluoropropanoic acid (60000 nM); -0.0195 ± 0.05 in experiment [3] (6700 nM); 0.002 ± 0.098 in experiment [3] (20000 nM); -0.0325 ± 0.046 in experiment [3] (60000 nM); -0.0365 ± 0.028 with Perfluoroheptanoic acid (6700 nM); 0.0245 ± 0.057 with Perfluoroheptanoic acid (20000 nM). In addition, the “level (log10)” value in the experiment with Perfluoroheptanoic acid (60000 nM) was -0.109 ± 0.057.

3C:SRB: the “level (log10)” value is -0.005 ± 0.0028 in experiment [1]; -0.021 ± 0.027 in the experiment with Perfluorobutanoic acid (6700 nM); -0.017 ± 0.013 with Perfluorobutanoic acid (20000 nM); -0.0085 ± 0.0035 with Perfluorobutanoic acid (60000 nM); 0.008 ± 0.031 with Pentafluoropropionamide (6700 nM); -0.001 ± 0.011 with Pentafluoropropionamide (20000 nM). Besides, the “level (log10)” value with Pentafluoropropionamide (60000 nM) was -0.025 ± 0.011; in experiment [2] (6700 nM), -0.0085 ± 0.0078; in experiment [2] (20000 nM), -0.008 ± 0.0028; in experiment [2] (60000 nM), -0.004 ± 0.0099; with Perfluoropropanoic acid (6700 nM) it was -0.0115 ± 0.0035; with Perfluoropropanoic acid (20000 nM) it was -0.009 ± 0.0028. The “level (log10)” value was -0.0065 ± 0.0021 in the experiment with Perfluoropropanoic acid (60000 nM); 0.0005 ± 0.011 in experiment [3] (6700 nM); -0.0075 ± 0.015 in experiment [3] (20000 nM); -0.017 ± 0.024 in experiment [3] (60000 nM); -0.0065 ± 0.0078 with Perfluoroheptanoic acid (6700 nM); 0.005 ± 0.0085 in the experiment with Perfluoroheptanoic acid (20000 nM). For the same test system, the “level (log10)” value in the experiment with Perfluoroheptanoic acid (60000 nM) is -0.0255 ± 0.0035.

In the case of 4H:CCL2/MCP-1, the “level (log10)” value in experiment [1] was 0.025 ± 0.0099; with Perfluorobutanoic acid (6700 nM), -0.0185 ± 0.012; with Perfluorobutanoic acid (20000 nM), -0.05 ± 0.028; in the experiment with Perfluorobutanoic acid (60000 nM), 0.0005 ± 0.079; with Pentafluoropropionamide (6700 nM), -0.028 ± 0.0042; with Pentafluoropropionamide (20000 nM), -0.0445 ± 0.03. Also, the “level (log10)” value was 0 ± 0.075 with Pentafluoropropionamide (60000 nM); 0.021 ± 0.023 in experiment [2] (6700 nM); -0.0005 ± 0.042 in experiment [2] (20000 nM); 0.0235 ± 0.066 in experiment [2] (60000 nM); -0.0455 ± 0.022 in the experiment with Perfluoropropanoic acid (6700 nM); -0.0145 ± 0.039 with Perfluoropropanoic acid (20000 nM). Further, the “level (log10)” value with Perfluoropropanoic acid (60000 nM) was 0.0285 ± 0.039; in experiment [3] (6700 nM) it was 0; in experiment [3] (20000 nM), -0.0255 ± 0.005; in experiment [3] (60000 nM), 0.0155 ± 0.059; with Perfluoroheptanoic acid (6700 nM), -0.0115 ± 0.0064; in the experiment with Perfluoroheptanoic acid (20000 nM), -0.0165 ± 0.013. For the same test system, in the experiment with Perfluoroheptanoic acid (60000 nM), the “level (log10)” value was 0.025 ± 0.024.
